These results are taken from paper PMC12278462, “Site-selective arylations of nature-inspired flavonoids or steroidal phenols via C—H or O—H activation” (Journal of Enzyme Inhibition and Medicinal Chemistry, 2025).

Where two headings read alike, the source gives them in different places.

Test [1] has as its system MCF-7. Kind of test: MTT antiproliferative assay, MCF-7. In kind it is cell-based, human. The note with it: Homo sapiens; for inhibition at 10 µM: MCF7, 10 µM; for inhibition at 10 µM / inhibition at 30 µM: 72 h; for inhibition at 30 µM: MCF7, 30 µM. How it is done:
(§1) We evaluated the cytotoxic activity of the newly synthesised arylated compounds 13–17 by the MTT assay[37] on a panel of human adherent cancer cell lines. The panel included breast (MCF-7 and MDA MB-231) and cervical (HeLa, SiHa and C33A) cancer cell lines differing in receptorial or HPV status. Tumour selectivity was determined on the NIH/3T3 mouse fibroblast cell line.
(§2) Briefly, the panels of breast and cervical cancerous cell lines, differing by their receptorial and HPV status were used, precisely MCF-7 (ER, PR and HER2 positive) and MDA-MB-231 (TNBC) breast carcinoma and HeLa (HPV18+), SiHa (HPV16+), C33A (HPV-) cervical carcinoma cells. Non-cancerous NIH/3T3 mouse fibroblast cell line was used for selectivity study. MCF-7, MDA-MB-231, Hela and NIH/3T3 cell lines were purchased from ECACC (European Collection of Cell Cultures, Salisbury, UK), while SiHa and C33A from ATCC (American Tissue Culture Collection, LGC Standards GmbH, Wesel, Germany). Cells were maintained in Eagle's Minimum Essential Medium (EMEM, Capricorn Scientific GmbH, Ebsdorfergrund, Germany) supplemented with 10% heat-inactivated fetal bovine serum (FBS), 1% non-essential amino acids (NEAA), and 1% antibiotic-antimycotic mixture (penicillin–streptomycin). The cells were maintained at 37 °C in a humidified atmosphere containing 5% CO2.
(§3) For measurements cells were seeded for 96-well plates at a density of 5 000/well, except for C33A, which was seeded in 10 000cells for each well. After overnight standing cells were treated with 10 and 30 µM solutions for screening and increasing concentrations (0.1-30.0 µM) of the test compounds were used for concentration-response curves. After incubation for 72 hours under cell culturing condition 5 mg/ml MTT (3-(4,5-[…])-2,5-diphenyl-2H-tetrazolium bromide) solution was added for another 4 h. The precipitated formazan crystals were solubilized in DMSO and the absorbance was measured at 545 nm with a microplate reader (BMG Labtech, Ortenberg, Germany). Wells with untreated cells were utilized as control, and inhibition % were calculated by GraphPad Prism v 9.0 software (GraphPad Software, San Diego, CA, USA). If the growth-inhibition exceeded 70% at 30 µM concentration during the screening concentration-response curves were fitted and IC50 values were calculated by GraphPad Prism v 9.0. The experiments were performed with five parallel wells for each experimental condition and repeated at least twice.

Test [2] concerns MDA-MB-231. As to the kind of experiment: MTT antiproliferative assay, MDA-MB-231. Particulars: Homo sapiens; for inhibition at 10 µM: MDA-MB-231, 10 µM; for inhibition at 10 µM / inhibition at 30 µM: 72 h; for inhibition at 30 µM: MDA-MB-231, 30 µM. In kind it is cell-based, human. How it is done:
as §1, §2, §3

Test [3] concerns HeLa. Kind of test: MTT antiproliferative assay, HeLa. In kind it is cell-based, human. Particulars: Homo sapiens, HeLa, 72 h. How it is done:
as §1, §2, §3

The subject of test [4] is SiHa. Kind of test: MTT antiproliferative assay, SiHa. In kind it is cell-based, human. Particulars: Homo sapiens, SiHa, 72 h. How it is done:
as §1, §2, §3

Test [5] deals with C33A. Kind of test: MTT antiproliferative assay, C33A. In kind it is cell-based, human. Particulars: Homo sapiens, C-33-A, 72 h. The procedure: as §1, §2, §3
Test [6] relates to NIH/3T3 mouse fibroblast cell line. As to the kind of experiment: MTT assay, tumour selectivity on non-cancerous fibroblasts. The note with it: Mus musculus; for inhibition at 10 µM: NIH3T3, 10 µM; for inhibition at 10 µM / inhibition at 30 µM: 72 h; for inhibition at 30 µM: NIH3T3, 30 µM. In kind it is cell-based. How it is done: as §1, §2, §3
The target in test [7] is T1, 17β-HSD1 (Homo sapiens, UniProt P14061).
T1 sequence (P14061 1-328): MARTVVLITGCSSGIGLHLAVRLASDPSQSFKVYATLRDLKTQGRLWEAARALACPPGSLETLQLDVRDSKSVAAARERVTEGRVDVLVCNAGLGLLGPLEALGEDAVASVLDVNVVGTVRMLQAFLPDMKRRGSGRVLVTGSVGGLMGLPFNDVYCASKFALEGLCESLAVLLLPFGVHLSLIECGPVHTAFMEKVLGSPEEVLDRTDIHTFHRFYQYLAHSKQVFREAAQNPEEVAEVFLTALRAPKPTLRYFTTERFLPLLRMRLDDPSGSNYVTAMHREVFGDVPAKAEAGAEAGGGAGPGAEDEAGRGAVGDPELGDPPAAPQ
As to the kind of experiment: 17β-HSD1 enzymatic assay (E1 to E2, LC-MS/MS). The note with it: for inhibition at 10 µM / inhibition at 100 µM: read-out: 17β-HSD1 Inhibition (% ± SD). Format: biochemical. The procedure: The bacterial homogenate of E. coli overexpressing HSD17B1 was previously prepared as described in references ^S2,S3, and stored in aliquots at -80 °C. Before conducting experiments, aliquots were quickly thawed and diluted twice with 100 mM sodium phosphate buffer (pH 6.5; #14457, #1411007, Kemika), then kept on ice. The enzymatic assay was performed as described in ^S3. Briefly, a 1 mL enzymatic reaction mixture was prepared in 2 mL microcentrifuge tubes with the following components: 10 µL of the test inhibitor dissolved in dimethyl sulfoxide (DMSO; #276855, Sigma Aldrich) or 10 µL of DMSO for control samples, 5 µL of 14 µM substrate estrone (E1; CAS 53-16-7; #E2300-000, Steraloids), 10 µL of 10 mM NADPH (#AE14, Carl Roth) prepared in 100 mM sodium phosphate buffer, and 965 µL of 100 mM sodium phosphate buffer (pH 6.5). The reaction mixture was mixed thoroughly before adding 10 µL of bacterial homogenate. Immediately after addition, the tubes were transferred to an Eppendorf thermoshaker (#5382000031, Eppendorf) and incubated at 37 °C for 10 minutes. To stop the reaction, 60 µL of 1.26 M ascorbic acid (#A92902, Sigma Aldrich) in methanol (#34966, Honeywell/Riedel-de Haen) /acetic acid (#1.00063, Merck) (99:1, v/v) was added. The samples were then immediately processed using solid-phase extraction (SPE). The assay was repeated in three independent experiments, with each experiment performed in technical duplicate.
The preparation of samples for liquid chromatography-tandem mass spectrometry (LC-MS/MS) involved SPE. Stock solutions of E1 and 17β-estradiol (E2; CAS: 50-28-2; #142406, Steraloids) were prepared gravimetrically and dissolved in methanol (#34966, Honeywell/Riedel-de Haen). A working calibrator solution containing both steroids was then prepared by mixing appropriate volumes of the stock solutions in methanol to achieve a final concentration of 1 µg/mL for each steroid. Eight-point calibration curves (excluding zero and blank) were prepared in 100 mM sodium phosphate buffer (pH 6.5). For each 1 mL reaction mixture or calibrator, 10 µL of 100 ng/mL internal standard solution containing [2,3,4-13C3]-17β-estradiol (#719552, Sigma Aldrich) was added. Samples were mixed thoroughly and incubated at room temperature for 15 minutes.
SPE was performed using Strata X 33 µm polymeric reversed-phase columns (30 mg/mL tubes; #8B-S100-TAK, Phenomenex). The procedure involved the following steps: column conditioning with 1 mL of methanol, column equilibration with 1 mL of H₂O (#1.15333, Supelco), sample loading (1 mL sample or calibrator), column washing with 1 mL of H₂O, column drying under high vacuum for 10 minutes, and finally elution with 1 mL of methanol directly into HPLC glass vials (#702713, Macherey-Nagel GmbH/Co). The eluted samples were stored at -20 °C until LC-MS/MS analysis.

The test system of test [8] is human adherent cancer cell lines (HeLa, SiHa, C33A, MCF-7 and MDA-MB-231). Kind of test: MTT assay, whole panel of cell lines. Format: cell-based. Particulars: Homo sapiens; MTT, 72 h; range across cell lines; read-out: IC50 range over the investigated cell lines. How it is done:
as §1, §2, §3

Take `CN(C)C(=O)Oc1cc2c(c(-c3ccc(C(C)(C)C)cc3)c1)[C@H]1CC[C@@]3(C)C(=O)CC[C@H]3[C@@H]1CC2` [13c, 3-(N,N-dimethylcarbamoyloxy)-1-(4-tert-butylphenyl)-13α-estra-1,3,5(10)-triene-17-one]: the inhibition at 10 µM was determined as 58.4% in test [1]; 43.8% in test [2]; 53.8% in test [3]; 54.8% in test [4]; 41.1% in test [5]; 47.3% in test [6]. Further, the inhibition at 30 µM in test [1] was found to be 102%; in test [2], 92.9%; in test [3], 98.6%; in test [4], 101%; in test [5] it was 93.6%; in test [6] it was 97.7%. Besides, the IC50 in test [1] (MCF7, 72 h, read-out: calculated IC50 MCF-7) was 5.7 µM; in test [2] (MDA-MB-231, 72 h, read-out: calculated IC50 MDA-MB-231), 9.09 µM; in test [3] (read-out: calculated IC50 HeLa), 7.9 µM; in test [4] (read-out: calculated IC50 SiHa) it was 4.74 µM; in test [5] (read-out: calculated IC50 C33A) it was 10.1 µM; in test [6] (NIH3T3, 72 h, read-out: calculated IC50 NIH/3T3), 8.75 µM. The IC50 in test [8] lay in the range of 4.74 to 10.1 µM. For the same compound, the “17β-HSD1 Inhibition (% ± SD)” value in test [7] (10 µM test concentration) and in test [7] (100 µM test concentration) was “No inhibition” in each case.
As to `C[C@@]12CC[C@@H]3c4c(cc(O)cc4-c4ccccc4)CC[C@H]3[C@@H]1CCC2=O` [14a, 3-hydroxy-1-phenyl-13α-estra-1,3,5(10)-triene-17-one], the inhibition at 10 µM is 13.1% in test [1]; less than 10% in test [2]; 16.1% in test [3]; less than 10% in test [4]; less than 10% in test [5]; 13.5% in test [6]. Besides, the inhibition at 10 µM in test [7] (10 µM test concentration) was found to be 36.1 ± 10.2%. For the same compound, the inhibition at 30 µM was 15.4% in test [1]; less than 10% in test [2]; 43% in test [3]; less than 10% in test [4]; 12.7% in test [5]; 22.5% in test [6]. The inhibition at 100 µM in test [7] (100 µM test concentration) was 73.3 ± 7.5%.
Consider `CN(C)C(=O)Oc1cc2c(c(-c3ccccc3)c1)[C@H]1CC[C@@]3(C)C(=O)CC[C@H]3[C@@H]1CC2` [13a, 3-(N,N-Dimethylcarbamoyloxy)-1-phenyl-13α-estra-1,3,5(10)-triene-17-one], for which the inhibition at 10 µM in test [1] was 22.5%; in test [2], less than 10%; in test [3], 30.9%; in test [4], 13.7%; in test [5], less than 10%; in test [6] it was 13.5%. Besides, the inhibition at 30 µM in test [1] stood at 52.8%; in test [2] it was 41%; in test [3] it was 59.9%; in test [4], 41%; in test [5], 27.2%; in test [6], 22.5%. In addition, in test [7] (10 µM test concentration), the “17β-HSD1 Inhibition (% ± SD)” value is “No inhibition”. In addition, the inhibition at 100 µM in test [7] is 33.6 ± 14.9%.
Turning to `CN(C)C(=O)Oc1cc2c(c(-c3ccc(Br)cc3)c1)[C@H]1CC[C@@]3(C)C(=O)CC[C@H]3[C@@H]1CC2` [13b, 1-(4-bromophenyl)-3-(N,N-dimethylcarbamoyloxy)-13α-estra-1,3,5(10)-triene-17-one], the inhibition at 10 µM in test [1] is 37.5%; in test [2], less than 10%; in test [3], 53.6%; in test [4], 38.6%; in test [5] it was less than 10%; in test [6], less than 10%. For the same compound, in test [7], the inhibition at 10 µM was found to be 14.5 ± 8.4%. Moreover, the inhibition at 30 µM in test [1] was 68.7%; in test [2], 13.9%; in test [3], 59.3%; in test [4], 40%; in test [5], 57.8%; in test [6], 46.3%. In addition, the inhibition at 100 µM in test [7] turned out to be 42.2 ± 18.6%.
